Legend:
[1] = test system: commensal and pathogenic bacterial species; experiment: Prebiotic screening, summary in words across species; format: cell-based; details: commensal (L. crispatus, L. gasseri, L. jensenii) and pathogenic (S. anginosus, E. faecalis) species
Description: (§1) Most of the prebiotic compounds were initially tested in a high throughput assay screening process, described further in the Test Methods section herein, but three prebiotics (as noted in Table 3) were tested using a plate assay screening process as described in the Test Methods section herein. The prebiotics were tested against the commensal bacterial species of Lactobacillus crispatus, Lactobacillus gasseri, and Lactobacillus jensenii and against the pathogenic bacterial species of Streptococcus anginosus and Enterococcus faecalis as shown in Table 2. The bacterial species were taken from different sources, listed as culture collection, bladder, and vagina.
(§2) The results of the assay plate screening of the prebiotic compounds of Table 1 against the bacterial species of Table 2 is documented in Table 3 with the results being described by the following legend: • ++ if growth and fermentation was equal to or greater than the positive control • + if growth and fermentation was less than the positive control • […] if weak or no growth or fermentation • NT if not tested Some codes were not tested based on the use or non-use by the bacteria, as a way to efficiently move through the assay plate screening to the competition assay, described below.
(§3) • 1. Create a 2% w/v stock of prebiotic or positive control (glucose/dextrose) to be tested in API 50 CHL media (Biomerieux, Marcy-I'Étoile, France). API 50 CHL media contains minimal amounts of carbon for growth, and a bromocresol purple as a pH indicator of fermentation. Filter sterilize media with a […]. Store at 4-6° C. until use. • 2. Add 180 μL of media containing the prebiotic to a sterile, flat bottom 96-well microtiter plate (Corning, Corning, NY). • 3. From a freezer stock subculture the bacteria twice into De Man, Rogosa and Sharpe (MRS) broth (BD Difco, Becton Dickinson, Franklin Lakes, NJ), 37° C., stationary, anaerobic, overnight. • 4. From the last subculture, plate onto an MRS agar plate (Teknova, Hollister, CA) and grow 37° C., stationary, anaerobic, overnight. • 5. Create a bacterial suspension by using a sterile tipped swab to transfer colonies of bacteria into a PBS suspension blank to a 0.5 MacFarland (S. anginosus or E. faecalis) or a 1 MacFarland (Lactobacillus species) from the MRS agar plate. • 6. Enumerate the starting culture. • 7. Inoculate the media alone and media containing the prebiotic or positive control with 20 μL of the bacterial suspension. • 8. Place the plate into a spectrophotometer (Molecular Devices, San Jose, CA) and read the plate every 20 minutes for 24-48 hours. Read wavelengths (OD 430, OD 590, and OD 660). A color change to yellow caused by a drop in pH will be read by an increase in the OD430 value and a decrease in the OD590 value and is indicative of bacterial fermentation. An increase in OD660 values is indicative of an increase in turbidity and bacterial growth.
• 1. An in house bacterial agar was created based on MRS agar (Kaplan and Hutkins, 2000) where the glucose is substituted for the prebiotic to be tested (either dextran MW ˜6,000, alpha-cyclodextrin, glucomannan, or pectin), bromocresol purple was included as a pH indicator. • 2. Bacteria were enumerated on each agar and color changes were recorded. Method for Competition Assay (Modified from “In Vitro Evaluation of Nutrients that Selectively Confer a Competitive Advantage to Lactobacilli” Vongsa et al, Beneficial Microbes 2016) • 1. Create 2% w/v stock of prebiotic or positive control (glucose/dextrose) as described above. • 2. From a freezer stock subculture the bacteria twice into De Man, Rogosa and Sharpe (MRS) broth (BD Difco, Becton Dickinson, Franklin Lakes, NJ), 37° C., stationary, anaerobic, overnight. • 3. From the last subculture, plate onto an MRS agar plate for L. crispatus KC18-1173-1 or blood agar for S. anginosus KC18-1131-3B, grow 37° C., stationary, anaerobic, overnight. • 4. […]

E. faecalis = experiment: High throughput assay screening of prebiotics; format: cell-based, Enterococcus faecalis; set-up: key: ++: if growth and fermentation was equal to or greater than the positive control; +: if growth and fermentation was less than the positive control; +: if weak or no growth or fermentation; +^2: Bacteria demonstrated growth but no fermentation on the prebiotic; details: 2% w/v prebiotic in API 50 CHL media; for growth and fermentation vs positive control, Ef-1: E. faecalis ATCC BAA-2128, Culture Collection; for growth and fermentation vs positive control, Ef-2: E. faecalis KC16-7171-3, Bladder; for growth and fermentation vs positive control, Ef-3: E. faecalis KC17-3969-2B, Bladder; for growth and fermentation vs positive control, Ef-4: E. faecalis KC17-4331-3, Bladder
Description: as §1, §2, §3

L. crispatus = experiment: High throughput assay screening of prebiotics; format: cell-based, Lactobacillus crispatus; set-up: key: ++: if growth and fermentation was equal to or greater than the positive control; +: if growth and fermentation was less than the positive control; +: if weak or no growth or fermentation; +^2: Bacteria demonstrated growth but no fermentation on the prebiotic; details: 2% w/v prebiotic in API 50 CHL media; for growth and fermentation vs positive control, Lc-1: L. crispatus ATCC 33820, Culture Collection; for growth and fermentation vs positive control, Lc-2: L. crispatus KC16-7134-3C, Bladder; for growth and fermentation vs positive control, Lc-3: L. crispatus KC18-1173-1, Bladder; for growth and fermentation vs positive control, Lc-4: L. crispatus KC18-1174-1, Vagina
Description: as §1, §2, §3

L. gasseri = experiment: High throughput assay screening of prebiotics; format: cell-based, Lactobacillus gasseri; set-up: key: ++: if growth and fermentation was equal to or greater than the positive control; +: if growth and fermentation was less than the positive control; +: if weak or no growth or fermentation; +^2: Bacteria demonstrated growth but no fermentation on the prebiotic; details: 2% w/v prebiotic in API 50 CHL media; for growth and fermentation vs positive control, Lg-1: L. gasseri KC16-7135-1, Bladder; for growth and fermentation vs positive control, Lg-2: L. gasseri KC16-7171-1, Bladder
Description: as §1, §2, §3

S. anginosus = experiment: High throughput assay screening of prebiotics; format: cell-based, Streptococcus anginosus; set-up: key: ++: if growth and fermentation was equal to or greater than the positive control; +: if growth and fermentation was less than the positive control; +: if weak or no growth or fermentation; +^2: Bacteria demonstrated growth but no fermentation on the prebiotic; details: 2% w/v prebiotic in API 50 CHL media; for growth and fermentation vs positive control, Sa-1: S. anginosus ATCC 33397, Culture Collection; for growth and fermentation vs positive control, Sa-2: S. anginosus KC18-1131-3B, Bladder
Description: as §1, §2, §3

| SMILES | overall outcome of the screening of Table 3, in words [1] | growth and fermentation vs positive control, Ef-1 (E. faecalis) | growth and fermentation vs positive control, Ef-2 (E. faecalis) | growth and fermentation vs positive control, Ef-3 (E. faecalis) | growth and fermentation vs positive control, Ef-4 (E. faecalis) | growth and fermentation vs positive control, Lc-1 (L. crispatus) | growth and fermentation vs positive control, Lc-2 (L. crispatus) | growth and fermentation vs positive control, Lc-3 (L. crispatus) | growth and fermentation vs positive control, Lc-4 (L. crispatus) | growth and fermentation vs positive control, Lg-1 (L. gasseri) | growth and fermentation vs positive control, Lg-2 (L. gasseri) | growth and fermentation vs positive control, Sa-1 (S. anginosus) | growth and fermentation vs positive control, Sa-2 (S. anginosus) | growth and fermentation vs positive control, Lg-4 (L. gasseri; L. gasseri KC18-1142-2, Bladder) |
| --- | --- | --- | --- | --- | --- | --- | --- | --- | --- | --- | --- | --- | --- | --- |
| O=C(O)CC(O)C(=O)O (racemic) [DL-Malic acid, DL-Malic acid (Malate)] | not able to provide growth for most, if not all, commensal and pathogenic bacterial species |  |  |  |  |  |  |  |  |  |  |  |  |  |
| O=C(CO)[C@@H](O)[C@@H](O)[C@H](O)CO [Tagatose] |  | ++ | ++ | ++ | ++ |  |  |  |  |  |  |  |  |  |
| CC(=O)N[C@H]1C(O)O[C@H](CO)[C@@H](O)[C@@H]1O (stereo partly shown) [N-Acetylglucosamine] | able to provide growth on the commensal bacterial species, but also provided growth on the pathogenic bacterial species | ++ | ++ | ++ | ++ | ++ | + | ++ | + | ++ | ++ | ++ | ++ |  |
| OC[C@H]1O[C@@H](O)[C@H](O)[C@@H](O)[C@@H]1O [Beta-D-glucose, Beta-D-Glucose] | able to provide growth on the commensal bacterial species, but also provided growth on the pathogenic bacterial species | ++ | ++ | ++ | ++ | ++ | ++ | ++ | ++ | ++ | ++ | ++ | ++ |  |
| OC[C@@H](O)[C@H](O)[C@@H](O)CO [Xylitol] | not able to provide growth for most, if not all, commensal and pathogenic bacterial species |  |  |  |  |  |  |  |  |  |  |  |  |  |
| OC[C@H]1O[C@@H](O[C@@H]2[C@@H](CO)OC(O)(CO)[C@H]2O)[C@H](O)[C@@H](O)[C@H]1O (mixture of isomers) [Lactulose] |  |  |  | +^2 | +^2 |  |  |  | ++ |  |  |  | ++ | + |
